Measured values published in ChEMBL document CHEMBL1201862, “PubChem BioAssay data set” (2004).
Calls of active or inactive are those of the source.

What was measured:
[1] = viability of uninfected HEp-2 cells – cell-based, HTS, cytotoxicity control for RSV inhibitor project, dose response (AID 2410); assay type: functional; settings: human respiratory syncytial virus
[2] = luciferase reporter signal suppression in cells – H4 neuroglioma cells, luminescence, dose response (AID 1990); assay type: functional, cell-based
[3] = Luminescence Cell-Based Dose Response HTS to Identify Inhibitors of 5'UTR Stem-Loop Driven Prion Protein mRNA Translation in H4 Neuroglioblastoma Cells. [Related pubchem assays: 1827 (Project Summary), 1813 (Primary HTS)]; assay type: functional
[4] = test system: Vero; assay: mammalian cell viability reduction – secondary assay, cytotoxicity control for West Nile virus antiviral project, dose response (AID 1650); assay type: functional; settings: Chlorocebus sabaeus
[5] = alpha-synuclein stem-loop luciferase translation blockers – H4 neuroglioma cells, luminescence, confirmation (AID 1988); assay type: functional, cell-based
[6] = target: Luciferin 4-monooxygenase (Photinus pyralis, UniProt P08659); assay: inhibition of purified Photinus pyralis luciferase – biochemical, luminescence, dose response (AID 1891)
Luciferin 4-monooxygenase, sequence (P08659 whole entry): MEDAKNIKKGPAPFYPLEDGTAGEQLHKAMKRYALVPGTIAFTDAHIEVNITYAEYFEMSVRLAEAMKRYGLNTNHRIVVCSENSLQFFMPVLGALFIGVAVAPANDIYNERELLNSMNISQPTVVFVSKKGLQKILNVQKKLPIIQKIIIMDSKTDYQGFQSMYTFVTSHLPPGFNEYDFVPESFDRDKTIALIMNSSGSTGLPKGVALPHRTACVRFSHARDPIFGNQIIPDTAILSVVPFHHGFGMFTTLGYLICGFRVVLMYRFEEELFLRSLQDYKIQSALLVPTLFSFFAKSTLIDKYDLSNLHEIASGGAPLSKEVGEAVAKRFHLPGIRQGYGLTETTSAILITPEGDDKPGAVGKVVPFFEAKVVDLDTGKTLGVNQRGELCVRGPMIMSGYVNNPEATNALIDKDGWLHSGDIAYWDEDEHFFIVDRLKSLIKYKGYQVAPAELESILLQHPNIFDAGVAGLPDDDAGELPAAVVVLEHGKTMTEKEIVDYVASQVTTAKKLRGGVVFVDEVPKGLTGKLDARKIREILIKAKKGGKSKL

[7] = Luminescence Cell-Based Dose Confirmation HTS to Identify Inhibitors of Platelet Dense Granule Release. [Related pubchem assays: 1663 (Primary HTS), 1678 (Summary of Project)]; assay type: functional
[8] = Fluorescence Cell-Based Dose Response to Identify Inhibitors of Thrombin Receptor-Activating Peptide SFLLRN-Mediated P-Selectin Induction on Platelets. [Related pubchem assays: 1663 (Primary HTS), 1889 (retest at dose ), 1891 (counterscreen), 1678 (Project Summary)]; assay type: functional
[9] = Luminescence Cell-Based Dose Confirmation HTS to Identify Activators of 5'UTR Stem-Loop Driven Alpha-Synuclein mRNA Translation in H4 Neuroglioblastoma Cells. [Related pubchem assays: 1829 (Project Summary), 1814 (Primary HTS)]; assay type: functional
[10] = Luminescence Cell-Based Dose Response HTS to Identify Activators of Luciferase Translation or Activity in H4 […] Cells. [Related pubchem assays: 1829 (Project Summary), 1814 (Primary HTS)]; assay type: functional
[11] = test system: H4; assay: Luminescence Cell-Based Dose Response HTS to Identify Activators of 5'UTR Stem-Loop Driven Prion Protein mRNA Translation in H4 Neuroglioblastoma Cells. [Related pubchem assays: 1829 (Project Summary), 1814 (Primary HTS)]; assay type: functional; settings: Homo sapiens
[12] = target: Heat shock protein HSP 90-alpha (Homo sapiens, UniProt P07900); assay: Luminescence-based dose response biochemical high throughput screening assay for inhibitors of the Heat Shock Protein 90 (HSP90). [Related pubchem assays: 1831 (Summary AID.), 1846 (Confirmation screen.), 1789 (Primary screen.)]
[13] = M. tuberculosis growth inhibition, HTS (AID 449762); assay type: functional
[14] = target: Sphingosine 1-phosphate receptor 1 (Homo sapiens, UniProt P21453); assay: Cell-membrane dose response assay to identify antagonists of the Sphingosine 1-Phosphate receptor 1 (S1P1).; assay type: functional
Sphingosine 1-phosphate receptor 1, sequence (P21453 whole entry): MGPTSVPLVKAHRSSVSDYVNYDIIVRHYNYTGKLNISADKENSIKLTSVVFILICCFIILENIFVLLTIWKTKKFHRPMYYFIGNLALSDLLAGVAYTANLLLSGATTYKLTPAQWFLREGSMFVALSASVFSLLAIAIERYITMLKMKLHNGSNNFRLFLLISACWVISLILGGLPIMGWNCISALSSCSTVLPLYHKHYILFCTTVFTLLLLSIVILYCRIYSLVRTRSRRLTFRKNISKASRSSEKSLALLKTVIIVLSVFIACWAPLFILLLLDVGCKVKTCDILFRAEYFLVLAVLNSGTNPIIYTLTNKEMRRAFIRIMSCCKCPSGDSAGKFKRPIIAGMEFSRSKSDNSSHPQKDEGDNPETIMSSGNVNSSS

[15] = target: 5-hydroxytryptamine receptor 1A (Homo sapiens, UniProt P08908); assay type: functional
5-hydroxytryptamine receptor 1A, sequence (P08908 whole entry): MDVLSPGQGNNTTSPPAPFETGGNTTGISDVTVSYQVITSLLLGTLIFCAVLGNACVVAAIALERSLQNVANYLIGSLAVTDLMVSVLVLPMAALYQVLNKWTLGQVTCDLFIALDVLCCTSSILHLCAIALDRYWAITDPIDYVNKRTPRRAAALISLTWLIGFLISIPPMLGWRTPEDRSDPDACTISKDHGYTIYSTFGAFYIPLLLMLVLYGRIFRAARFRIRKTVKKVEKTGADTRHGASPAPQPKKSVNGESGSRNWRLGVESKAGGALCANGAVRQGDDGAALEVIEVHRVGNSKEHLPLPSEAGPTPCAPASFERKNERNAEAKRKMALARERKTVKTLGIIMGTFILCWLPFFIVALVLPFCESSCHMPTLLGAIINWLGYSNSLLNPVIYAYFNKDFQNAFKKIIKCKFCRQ

[16] = target: T1, Protein skinhead-1 (Caenorhabditis elegans, UniProt P34707); assay type: functional
T1 sequence (P34707 whole entry): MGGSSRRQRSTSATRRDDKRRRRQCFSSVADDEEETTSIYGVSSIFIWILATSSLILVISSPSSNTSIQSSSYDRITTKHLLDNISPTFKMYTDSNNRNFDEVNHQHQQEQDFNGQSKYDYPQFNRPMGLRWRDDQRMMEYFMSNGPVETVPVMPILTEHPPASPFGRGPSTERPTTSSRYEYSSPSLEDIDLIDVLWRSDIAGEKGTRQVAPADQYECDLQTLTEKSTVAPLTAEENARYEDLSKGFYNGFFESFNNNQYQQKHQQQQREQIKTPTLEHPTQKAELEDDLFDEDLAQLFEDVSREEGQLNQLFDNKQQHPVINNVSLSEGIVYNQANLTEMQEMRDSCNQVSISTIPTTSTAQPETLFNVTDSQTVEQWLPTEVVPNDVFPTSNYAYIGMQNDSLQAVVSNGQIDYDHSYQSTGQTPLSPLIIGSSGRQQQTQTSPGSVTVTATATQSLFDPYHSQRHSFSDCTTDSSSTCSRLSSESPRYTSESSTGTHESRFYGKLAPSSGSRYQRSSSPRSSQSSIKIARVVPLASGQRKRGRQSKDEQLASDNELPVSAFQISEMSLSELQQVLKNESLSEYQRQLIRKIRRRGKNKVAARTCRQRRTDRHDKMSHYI

[17] = target: Galanin receptor type 2 (Homo sapiens, UniProt O43603); assay: Dose Response cell-based high-throughput screening assay to identify antagonists of galanin receptor 2 (GALR2). [Related pubchem assays: 828, 866 ]; assay type: functional
Galanin receptor type 2, sequence (O43603 whole entry): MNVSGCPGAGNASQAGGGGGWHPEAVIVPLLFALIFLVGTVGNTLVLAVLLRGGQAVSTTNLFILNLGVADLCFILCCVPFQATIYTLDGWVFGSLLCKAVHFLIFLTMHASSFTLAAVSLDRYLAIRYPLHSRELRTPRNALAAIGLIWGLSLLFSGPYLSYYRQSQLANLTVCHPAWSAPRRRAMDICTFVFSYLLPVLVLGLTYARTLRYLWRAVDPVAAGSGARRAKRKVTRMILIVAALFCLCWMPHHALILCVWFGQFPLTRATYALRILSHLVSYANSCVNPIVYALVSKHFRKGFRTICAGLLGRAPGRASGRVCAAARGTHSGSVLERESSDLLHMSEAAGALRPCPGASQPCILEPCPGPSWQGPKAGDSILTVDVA

[18] = target: Bifunctional protein GlmU (Mycobacterium tuberculosis, UniProt P9WMN3); assay: Inhibitors of Mycobacterial Glucosamine-1-phosphate acetyl transferase (GlmU). Secondary screen.; set-up: species or system Mycobacterium tuberculosis H37Rv
Bifunctional protein GlmU, sequence (P9WMN3 whole entry): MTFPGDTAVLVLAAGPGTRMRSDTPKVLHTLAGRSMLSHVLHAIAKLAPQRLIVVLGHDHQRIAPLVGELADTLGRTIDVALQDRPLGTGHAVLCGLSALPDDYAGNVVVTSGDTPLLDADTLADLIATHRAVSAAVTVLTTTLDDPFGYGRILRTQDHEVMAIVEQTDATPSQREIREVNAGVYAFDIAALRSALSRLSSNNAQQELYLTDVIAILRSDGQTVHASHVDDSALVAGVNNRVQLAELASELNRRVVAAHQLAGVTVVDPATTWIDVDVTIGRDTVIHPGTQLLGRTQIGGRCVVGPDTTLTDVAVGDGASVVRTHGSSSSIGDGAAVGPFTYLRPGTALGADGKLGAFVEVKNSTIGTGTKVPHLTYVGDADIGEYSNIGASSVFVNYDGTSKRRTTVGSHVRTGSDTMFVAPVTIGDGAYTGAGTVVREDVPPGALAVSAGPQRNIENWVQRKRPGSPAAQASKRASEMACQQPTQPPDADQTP

[19] = target: T2, Neuropeptide Y receptor type 2 (Homo sapiens, UniProt P49146); assay: IC50 for human NPY-Y2 blockade – cell-based, counter-screen for NPY-Y1 antagonist project, dose response (AID 1278); assay type: functional
T2 sequence (P49146 whole entry): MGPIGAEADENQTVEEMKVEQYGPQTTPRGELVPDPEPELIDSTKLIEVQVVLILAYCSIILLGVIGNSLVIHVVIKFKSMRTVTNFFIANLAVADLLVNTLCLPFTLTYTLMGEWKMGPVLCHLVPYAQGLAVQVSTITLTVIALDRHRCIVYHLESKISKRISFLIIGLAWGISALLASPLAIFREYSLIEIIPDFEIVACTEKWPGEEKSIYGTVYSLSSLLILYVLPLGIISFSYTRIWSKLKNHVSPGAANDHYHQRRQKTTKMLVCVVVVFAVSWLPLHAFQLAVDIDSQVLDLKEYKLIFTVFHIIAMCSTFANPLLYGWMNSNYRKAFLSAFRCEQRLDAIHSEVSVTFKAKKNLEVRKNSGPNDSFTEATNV

[20] = target: T3, Neuropeptide Y receptor type 1 (Homo sapiens, UniProt P25929); assay: IC50 of human NPY-Y1 blockers – cell-based, dose response (AID 1277); assay type: functional
T3 sequence (P25929 whole entry): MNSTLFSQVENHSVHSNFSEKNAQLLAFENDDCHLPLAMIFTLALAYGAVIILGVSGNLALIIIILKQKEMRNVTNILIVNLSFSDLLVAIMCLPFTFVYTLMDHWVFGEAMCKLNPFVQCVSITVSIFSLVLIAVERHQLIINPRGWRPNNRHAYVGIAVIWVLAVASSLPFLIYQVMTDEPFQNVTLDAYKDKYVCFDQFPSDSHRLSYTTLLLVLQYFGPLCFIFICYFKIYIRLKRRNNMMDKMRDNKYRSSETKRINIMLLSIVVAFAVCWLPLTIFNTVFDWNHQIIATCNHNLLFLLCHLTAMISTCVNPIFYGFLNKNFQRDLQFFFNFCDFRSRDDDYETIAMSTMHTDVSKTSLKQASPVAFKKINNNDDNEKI

[21] = target: T4, Mannose-6-phosphate isomerase (Homo sapiens, UniProt P34949); assay: MPI enzyme activity inhibition – biochemical, fluorescence intensity, coupled assay, primary screen (AID 1209)
T4 sequence (P34949 whole entry): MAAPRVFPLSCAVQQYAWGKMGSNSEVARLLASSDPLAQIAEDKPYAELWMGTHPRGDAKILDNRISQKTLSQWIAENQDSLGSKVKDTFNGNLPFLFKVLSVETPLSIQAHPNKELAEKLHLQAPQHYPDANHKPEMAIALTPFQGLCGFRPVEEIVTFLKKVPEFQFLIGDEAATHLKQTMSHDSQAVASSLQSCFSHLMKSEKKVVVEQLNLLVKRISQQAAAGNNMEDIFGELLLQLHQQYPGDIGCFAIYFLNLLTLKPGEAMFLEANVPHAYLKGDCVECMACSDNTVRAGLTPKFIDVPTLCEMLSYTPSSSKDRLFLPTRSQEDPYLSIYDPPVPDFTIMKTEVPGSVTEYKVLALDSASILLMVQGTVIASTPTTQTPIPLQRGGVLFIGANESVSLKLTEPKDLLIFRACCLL

[22] = target: Melanocortin receptor 4 (Homo sapiens, UniProt P32245); assay: inhibitors of MC4R cAMP signaling – cell-based, TR-FRET, biased antagonists, dose response (AID 602298); assay type: functional;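 note: antagonist potency against agonist-stimulated cAMP production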
Melanocortin receptor 4, sequence (P32245 whole entry): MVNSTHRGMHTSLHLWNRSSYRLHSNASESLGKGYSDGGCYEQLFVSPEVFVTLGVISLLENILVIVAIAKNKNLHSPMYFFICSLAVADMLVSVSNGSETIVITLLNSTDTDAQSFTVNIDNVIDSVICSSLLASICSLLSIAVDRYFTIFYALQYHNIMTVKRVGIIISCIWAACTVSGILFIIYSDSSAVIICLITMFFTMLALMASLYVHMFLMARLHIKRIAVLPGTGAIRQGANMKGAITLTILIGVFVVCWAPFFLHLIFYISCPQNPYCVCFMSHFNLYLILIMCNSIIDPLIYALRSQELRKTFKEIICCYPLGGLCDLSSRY

[23] = reduction of Shn3 3'UTR-driven luciferase in osteoblasts – cell-based, Clone20 osteoblasts, firefly luciferase, cherry-picked, dose response (AID 624132); assay type: functional;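 note: firefly luciferase luminescence from reporter carrying the Shn3 3'UTR in osteoblasts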
[24] = loss of viability in HepG2 cells – cell-based, CellTiter-Glo, cherry-picked, cytotoxicity control for Shn3 inhibitor project, dose response (AID 624134); assay type: functional
[25] = non-specific 3'UTR reporter inhibition in Clone20-Shn3RL – cell-based, Renilla luciferase, cherry-picked, counter-screen for Shn3 inhibitor project, dose response (AID 624133); assay type: functional
[26] = cAMP pathway inhibition in counterscreen cell line – TR-FRET cAMP detection, counter-screen for MC4R biased antagonist project, dose response (AID 602305); assay type: functional, cell-based;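 note: U2OS cells stimulated with forskolin near its EC80 as the cAMP inducer; potency is for inhibition of forskolin-stimulated cAMP signaling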
[27] = target: Paired box protein Pax-8 (Homo sapiens, UniProt Q06710); assay: PAX8 transcriptional activity inhibition in RMG-I – RMG-I cells, luciferase, cherry-pick, dose response (AID 687027); assay type: functional, cell-based;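 note: luciferase reporter driven by Pax8 target thyroperoxidase promoter measured by SteadyGlo luminescence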
Paired box protein Pax-8, sequence (Q06710 whole entry): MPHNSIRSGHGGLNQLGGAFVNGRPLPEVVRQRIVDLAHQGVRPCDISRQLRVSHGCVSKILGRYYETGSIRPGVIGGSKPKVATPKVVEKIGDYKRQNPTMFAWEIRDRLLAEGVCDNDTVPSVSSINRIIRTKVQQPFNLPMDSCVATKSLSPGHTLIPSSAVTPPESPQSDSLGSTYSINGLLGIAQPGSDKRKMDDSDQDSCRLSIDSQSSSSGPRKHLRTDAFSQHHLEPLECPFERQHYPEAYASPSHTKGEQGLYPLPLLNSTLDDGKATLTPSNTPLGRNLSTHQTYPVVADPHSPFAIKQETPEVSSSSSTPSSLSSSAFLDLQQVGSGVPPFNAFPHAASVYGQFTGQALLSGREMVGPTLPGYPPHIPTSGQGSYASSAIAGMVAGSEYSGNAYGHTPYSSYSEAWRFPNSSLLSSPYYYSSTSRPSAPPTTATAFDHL

[28] = viability loss in A549 lung cells – cell-based, 24 h, CellTiter-Glo luminescence, cherry-picks, cytotoxicity control, dose response (AID 1053115); assay type: functional; settings: A549, 24 h
[29] = lung carcinoma cell viability loss – CellTiter-Glo luminescence, dry powder, set 17, dose response (AID 1117284); assay type: functional, cell-based; settings: A549
[30] = target: Voltage-gated inwardly rectifying potassium channel KCNH2 (Homo sapiens, UniProt Q12809); assay: concentration-dependent hERG rescue from blockers – cell-based, thallium flux, dose response (AID 2121); assay type: ADME
Voltage-gated inwardly rectifying potassium channel KCNH2, sequence (Q12809 whole entry): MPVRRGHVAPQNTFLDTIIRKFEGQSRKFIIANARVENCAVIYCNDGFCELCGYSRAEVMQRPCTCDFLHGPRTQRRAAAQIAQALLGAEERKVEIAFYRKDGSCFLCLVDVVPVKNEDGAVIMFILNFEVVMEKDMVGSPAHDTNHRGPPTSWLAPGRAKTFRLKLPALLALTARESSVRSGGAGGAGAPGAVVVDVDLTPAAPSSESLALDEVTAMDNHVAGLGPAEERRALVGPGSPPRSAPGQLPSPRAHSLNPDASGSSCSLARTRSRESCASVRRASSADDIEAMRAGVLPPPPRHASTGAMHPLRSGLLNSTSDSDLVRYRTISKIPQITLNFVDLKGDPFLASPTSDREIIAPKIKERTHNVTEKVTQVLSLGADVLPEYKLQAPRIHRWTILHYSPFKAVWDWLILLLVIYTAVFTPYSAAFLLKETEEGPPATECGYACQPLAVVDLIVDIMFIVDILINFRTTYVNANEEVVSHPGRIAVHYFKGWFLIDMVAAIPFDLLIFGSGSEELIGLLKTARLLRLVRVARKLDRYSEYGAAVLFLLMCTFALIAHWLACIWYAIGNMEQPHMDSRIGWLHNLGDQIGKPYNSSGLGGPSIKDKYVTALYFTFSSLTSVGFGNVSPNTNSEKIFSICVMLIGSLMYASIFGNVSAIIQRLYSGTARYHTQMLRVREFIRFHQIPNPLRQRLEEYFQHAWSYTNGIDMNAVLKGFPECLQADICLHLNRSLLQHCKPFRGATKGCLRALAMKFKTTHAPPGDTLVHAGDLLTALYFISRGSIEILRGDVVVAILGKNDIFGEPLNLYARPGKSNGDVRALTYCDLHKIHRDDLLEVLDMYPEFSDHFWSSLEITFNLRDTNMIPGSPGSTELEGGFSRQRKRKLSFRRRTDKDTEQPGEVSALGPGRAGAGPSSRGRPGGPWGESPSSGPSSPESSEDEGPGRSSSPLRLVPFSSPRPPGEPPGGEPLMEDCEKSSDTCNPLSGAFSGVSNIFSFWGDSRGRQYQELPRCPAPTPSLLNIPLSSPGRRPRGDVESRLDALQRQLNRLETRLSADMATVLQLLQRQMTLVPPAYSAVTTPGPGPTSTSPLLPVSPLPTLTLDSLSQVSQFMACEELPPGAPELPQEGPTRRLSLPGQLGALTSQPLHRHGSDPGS

Compound: CC12CC[C@H]3[C@@H](CCC4(O)C[C@H](O)CCC34/C=N/NC(=O)c3ccccc3[N+](=O)[O-])C1(O)CCC2C1=CC(=O)OC1 (stereo not given in full)
- CC50 [1]: 12.9 µM (active)
- EC50 [2]: 11.2 µM (active)
- EC50 [3]: 11.9 µM (active)
- CC50 [4]: 32 µM (active)
- EC50 [5]: 8.77 µM (active)

Compound: O=C(Oc1ccc(Cl)cc1)c1ccc(COC(=O)c2cnccn2)cc1
- EC50 [6]: > 112 µM (not active)
- EC50 [7]: 7.27 µM (active)
- EC50 [8]: > 100 µM (not active)

Compound: Cc1nc(NC(=O)c2cccc(Cl)c2)sc1C(=O)N1CCCCC1
- EC50 [9]: 12.2 µM (active)
- EC50 [10]: 14.2 µM (active)
- EC50 [11]: 20.1 µM (active)
- IC50 [12]: 6.4 µM (active)

Compound: O=C1c2ccccc2C(=O)N1Nc1ccccc1
- IC50 [13]: > 100 µM (active)

Compound: CCCCCCc1cccc(NC(=O)[C@H](N)CCP(=O)(O)O)c1
- Ki [14]: 4.63 µM (active)

Compound: O=C(COC(=O)CCC1CCCC1)Nc1ccc(Cl)cn1
- EC50 [15]: > 50 µM (not active)
- IC50 [16]: > 100 µM (inactive)

Compound: CCn1c2ccc(C)cc2c2nc3cc(C(=O)O)ccc3nc21
- IC50 [17]: > 42 µM (not active)
- IC50 [18]: 191 µM (active)

Compound: Cc1ccc(C)c(SCc2noc(C(=O)NCC3CCCO3)c2C(=O)O)c1 (stereo not given)
- IC50 [19]: 26.4 µM (not active)
- IC50 [20]: > 35 µM (not active)

Compound: CC1(C(=O)CSc2nc[nH]n2)CCC(=O)O1 (stereo not given)
- IC50 [21]: > 50 µM (not active)

Compound: C[C@H](O)C#Cc1ccc2c(c1)O[C@@H](CN(C)Cc1ccc(-c3ccccc3)cc1)[C@H](C)CN([C@@H](C)CO)S2(=O)=O
- IC50 [22]: > 64.6 µM (inactive)
- AC50 [23]: 10.3 µM (active)
- AC50 [24]: 19.4 µM (active)
- AC50 [25]: 27.6 µM (active)
- IC50 [26]: > 64.6 µM (inactive)
- AC50 [27]: 6.73 µM (active)
- AC50 [28]: 42.8 µM (active)
- AC50 [29]: 28.3 µM (active)

Compound: CC(C)CNC(=S)NC(=O)c1ccc(Cl)cc1
- EC50 [30]: 6.61 µM (active)
